Laboratory results published in article PMC6522510 (Nature Communications, 2019).
Like-named read-outs stand apart in the source and are kept apart here.

Assays:
[1] = system: AML cell lines; experiment: Nuclear accumulation of [3H]-labelled drug; assay type: cell-based, human; details: 2 h, 1 µM
[2] = system: CMK; experiment: Secondary dose-response HTS, Cell Titer Glo; assay type: cell-based, human; details: Homo sapiens, CMK; secondary HTS, 72 h, average of triplicate; read-out: EC50 CMK
[3] = system: CMK; experiment: cells; set-up: species or system AML cell lines (8); Secondary HTS, 10-point dose-response in triplicate, Cell Titer Glo viability, four-parameter fit EC50; details: Homo sapiens, CMK, 72 h, read-out: CMK
[4] = system: CHRF288-11; experiment: Secondary dose-response HTS, Cell Titer Glo; assay type: cell-based, human; details: Homo sapiens; secondary HTS, 72 h, average of triplicate; read-out: EC50 CHRF288-11
[5] = system: MV4-11; assay type: cell-based; details: Homo sapiens, 72 h, Cell Titer Glo
[6] = system: CBFA2T3-GLIS2/JAK2V617F-induced AMKL model; experiment: In vivo efficacy, survival; set-up: species or system mice; details: CBFA2T3-GLIS2/JAK2V617F-Luc+ quaternary transplants, i.p.
[7] = system: U937; experiment: Secondary dose-response HTS, Cell Titer Glo; assay type: cell-based, human; details: Homo sapiens, U-937; secondary HTS, 72 h, average of triplicate; read-out: EC50 U937
[8] = system: U937; assay type: cell-based; details: Homo sapiens, U-937; 72 h, Cell Titer Glo
[9] = system: THP-1; assay type: cell-based; details: Homo sapiens, 72 h, Cell Titer Glo
[10] = In vivo tolerability / maximum tolerated dose; set-up: species or system mice
Experimental: Next, we sought to compare the in vivo efficacy of gemcitabine and cabazitaxel to the standard of care, cytarabine. Due to limitations with tolerability, we have previously treated our AML xenograft models with low-dose cytarabine[13],[31]. […] Tolerability studies of gemcitabine at the same dose and schedule was not tolerated. […] Similarly, we performed tolerability of cabazitaxel using multiple doses on an intermittent every 3 or 4-day schedule; the only tolerable dose was 5 mg/kg.
All animal studies were performed in accordance with Animal Care and Use Programs under protocols approved by the Institutional Animal Care and Use Committee at OSU. We have complied with the relevant ethical considerations for animal research overseen by this committee. Mice were housed in a barrier facility. Non-tumor bearing Ly5.2 C57Bl/6 (BoyJ) mice were treated with 100, 120, or 140 mg kg^−1 gemcitabine on an intermittent schedule every 3 days for 3 weeks; 3 or 6 mg kg^−1 doses were used to evaluate daily for 5 days schedule. All doses were administered by intraperitoneal injection; tolerability was assessed by daily weights and observation of changes in body condition.
Supplementary Figure 12. Establish maximum tolerated dose of gemcitabine. Non-tumor bearing female BoyJ mice were treated on an intermittent schedule every 3 days for 3 weeks with 100, 120, or 140 m gkg-1 gemcitabine (Gem ) or treated on a daily schedule once a day for 5 days with 3 or 6 m gkg-1 Gem. Daily weight of treated mice; data reported as a percent weight loss from day 0. Arrow indicate treatment days.

[11] = system: U937; experiment: cells; set-up: species or system AML cell lines (8); Secondary HTS, 10-point dose-response in triplicate, Cell Titer Glo viability, four-parameter fit EC50; details: Homo sapiens, U-937, 72 h, read-out: U937
[12] = system: CMS; experiment: Secondary dose-response HTS, Cell Titer Glo; assay type: cell-based, human; details: Homo sapiens; secondary HTS, 72 h, average of triplicate; read-out: EC50 CMS
[13] = system: ML2; experiment: Secondary dose-response HTS, Cell Titer Glo; assay type: cell-based, human; details: Homo sapiens, ML-2
[14] = system: CHRF288-11-luciferase/YFP+ xenograft; experiment: In vivo efficacy, survival; set-up: species or system NSG mice; details: CHRF288-11 xenograft, 50 mg kg−1 q4d, i.p.
[15] = system: M07e; experiment: Secondary dose-response HTS, Cell Titer Glo; assay type: cell-based, human; details: Homo sapiens, M-07e
[16] = system: AMKL primary AML blast samples; experiment: Ex vivo drug treatment of primary AML blasts on mesenchymal stromal cells; assay type: cell-based; details: Homo sapiens; primary blasts on MSC, 96 h
[17] = system: panel of 8 AML cell lines; experiment: Secondary dose-response HTS, whole panel; assay type: cell-based, human; details: Homo sapiens; all cell lines; read-out: potency across subtypes in the secondary HTS
[18] = system: AMKL patient-derived xenograft; experiment: In vivo efficacy, survival; set-up: species or system NSG-SGM3 mice; details: AMKL PDX, 50 mg kg−1 q4d, i.p.
[19] = system: Mll-PTD/wt:Flt3ITD/ITD primary transplants; experiment: In vivo efficacy, survival; set-up: species or system mice; details: Mll-PTD/wt:Flt3ITD/ITD primary transplants, 50 mg kg−1 q4d, i.p.
[20] = system: CHRF288-11; assay type: cell-based; details: Homo sapiens; 72 h, Cell Titer Glo; read-out: IC50 CHRF288-11
[21] = system: MOLM-13; assay type: cell-based; details: Homo sapiens, 72 h, Cell Titer Glo
[22] = system: Mll-PTD/wt:Flt3ITD/ITD secondary transplants; experiment: In vivo efficacy, survival; set-up: species or system mice; details: for Median survival: i.p.
[23] = system: CMS; assay type: cell-based; details: Homo sapiens; 72 h, Cell Titer Glo; read-out: IC50 CMS
[24] = system: MOLM-13; experiment: Secondary dose-response HTS, Cell Titer Glo; assay type: cell-based, human; details: Homo sapiens, MOLM-13
[25] = system: ML-2; assay type: cell-based; details: Homo sapiens, 72 h, Cell Titer Glo

In the case of `Nc1ccn([C@@H]2O[C@H](CO)[C@@H](O)C2(F)F)c(=O)n1` [Gemcitabine, gemcitabine], the “nuclear accumulation, gemcitabine compared to cytarabine” value [1] is reported as 5–19.8 fold, the EC50 [2] is reported as 10 nM and the EC50 [3] is reported as 8.4 nM. The EC50 [4] was 3 nM, the IC50 [5] was 3.2 nM and the Median survival ([6]; 3 mg kg−1 daily x 5 days) was 91 days. The Median survival ([6]; 120 mg kg−1 q3d) was greater than 125 days, the EC50 [7] was 10 nM and the IC50 [8] was 31 nM. The IC50 [9] was 3.5 nM, the MTD at 5 days ([10]; female, Ly5.2 C57Bl/6 (BoyJ), mouse, in vivo, ip, immunocompetent (BoyJ) mice, daily for 5 days, i.p., read-out: MTD, daily administration) was 3 mg/kg and the “MTD, intermittent administration” value ([10]; immunocompetent (BoyJ) mice, q3d for 3 weeks, i.p.) was 120 mg/kg. The tolerability ([10]; mouse, in vivo) was “not tolerated”, the EC50 [11] was 7.73 nM and the EC50 [12] was 30 nM. The EC50 ([13]; secondary HTS, 72 h, average of triplicate, read-out: EC50 ML2) was 2 nM, the EC50 ([13]; secondary high-throughput screen, read-out: average effective concentration, ML-2) was 1.7 nM and the Median survival [14] was 48 days. The Median survival ([14]; x 2 cycles) was 66 days, the EC50 ([15]; secondary HTS, 72 h, average of triplicate, read-out: EC50 M07e) was 60 nM and the EC50 ([15]; secondary high-throughput screen, M07e, read-out: average effective concentration, M07e) was 62 nM. The IC50 [16] was 108 nM, the EC50 [17] was less than 65 nM and the Median survival [18] was 76 days. The Median survival [19] was 69 days, the IC50 [20] was 0.4 nM and the IC50 [21] was 0.7 nM. For the same molecule, the Median survival ([22]; 3 mg kg−1 daily x 5 days) was 49 days, the “tolerability of the intermittent MTD” value ([22]; 120 mg kg−1 q3d) was “not well tolerated” and the Median survival ([22]; 120 mg kg−1 q3d (only 4 doses received)) was 52 days. It also gave an IC50 [23] of 1 nM, an EC50 ([24]; secondary HTS, 72 h, average of triplicate, read-out: EC50 MOLM-13) of 3 nM and an EC50 ([24]; secondary high-throughput screen, read-out: average effective concentration, MOLM-13) of 2.73 nM. For the same molecule, the IC50 [25] was 0.6 nM.
